These are literature values, as cited in patent publication US20050090660A1, “2'-deoxy-L-nucleosides” (priority 1999, published 2005).

Usually IC50 stands for the concentration needed to halve the response being measured.

The test system of one data set is HBV. As to conditions: HBV patients, two and four week courses.
A further data set has as its system HIV. As to conditions: specificity versus HBV.
The target in the next data set is T1, polymerase γ (Homo sapiens, UniProt P54098).
T1 sequence (P54098 1-1239): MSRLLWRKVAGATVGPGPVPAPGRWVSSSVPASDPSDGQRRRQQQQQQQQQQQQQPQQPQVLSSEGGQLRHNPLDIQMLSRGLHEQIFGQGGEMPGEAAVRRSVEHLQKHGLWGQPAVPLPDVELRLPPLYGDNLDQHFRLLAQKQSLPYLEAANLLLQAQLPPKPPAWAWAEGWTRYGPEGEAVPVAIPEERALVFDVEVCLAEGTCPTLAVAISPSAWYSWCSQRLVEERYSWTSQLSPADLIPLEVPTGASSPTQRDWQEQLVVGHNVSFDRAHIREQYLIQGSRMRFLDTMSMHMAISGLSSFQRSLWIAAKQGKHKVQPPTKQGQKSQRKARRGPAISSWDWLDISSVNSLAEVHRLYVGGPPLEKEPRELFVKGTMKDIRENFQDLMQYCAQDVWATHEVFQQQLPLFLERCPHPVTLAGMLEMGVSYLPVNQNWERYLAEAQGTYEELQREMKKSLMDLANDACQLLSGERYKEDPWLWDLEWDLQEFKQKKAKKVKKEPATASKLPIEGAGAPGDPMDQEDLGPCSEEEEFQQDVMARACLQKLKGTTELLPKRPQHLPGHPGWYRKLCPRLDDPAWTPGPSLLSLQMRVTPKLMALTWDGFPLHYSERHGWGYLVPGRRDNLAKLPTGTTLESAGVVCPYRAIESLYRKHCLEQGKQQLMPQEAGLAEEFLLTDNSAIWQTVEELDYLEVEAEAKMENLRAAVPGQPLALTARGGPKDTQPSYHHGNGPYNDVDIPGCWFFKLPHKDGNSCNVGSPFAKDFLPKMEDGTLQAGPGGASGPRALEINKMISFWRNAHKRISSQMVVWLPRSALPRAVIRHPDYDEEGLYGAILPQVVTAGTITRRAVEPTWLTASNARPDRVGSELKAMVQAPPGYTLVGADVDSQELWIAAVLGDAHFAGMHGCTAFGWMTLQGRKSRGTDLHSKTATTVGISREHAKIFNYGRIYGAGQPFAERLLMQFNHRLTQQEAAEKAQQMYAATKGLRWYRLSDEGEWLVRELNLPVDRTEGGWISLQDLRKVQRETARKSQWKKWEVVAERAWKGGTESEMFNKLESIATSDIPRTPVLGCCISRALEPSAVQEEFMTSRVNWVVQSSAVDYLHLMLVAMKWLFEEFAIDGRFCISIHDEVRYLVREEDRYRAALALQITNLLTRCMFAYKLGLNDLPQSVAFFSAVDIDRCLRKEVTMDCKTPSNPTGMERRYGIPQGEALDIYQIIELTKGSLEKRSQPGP
As to conditions: polymerase responsible for mitochondrial DNA chain elongation.

For data set [1], the system named is mitochondrial DNA synthesis and lactic acid production.

The structures appear in SMILES notation.

As to `O=c1[nH]c(=O)n([C@@H]2O[C@H](CO)[C@@H](O)[C@@H]2F)cc1I` [FIAU], the “suppression of serum HBV DNA levels” value in the data set on HBV was at most 95%. In addition, the “patients who died from hepatic failure” value (of the 7 patients with delayed hepatotoxicity, trial with 15 patients) is given as 5. Further, the “patients with delayed hepatotoxicity” value (prolonged treatment trial with 15 patients) is on record as 7 patients.
In the case of `Cc1cn([C@H]2O[C@@H](CO)[C@H](O)[C@H]2F)c(=O)[nH]c1=O` [L-FMAU], in the data set on hepatoma cell lines, the lactic acid production entry was “no significant”.
Take `Nc1ncnc2c1ncn2[C@@H]1C[C@@H](O)[C@H](CO)O1` [L-dAdo, 2′-deoxy-β-L-adenosine]: in the data set on HIV, the “activity against HIV” value is recorded as “not HIV”. Besides, the “substrate activity for polymerase γ” value at polymerase γ is “little, if any”. In the data set on uninfected HepG2 cells (treated at up to 100 μM), the “morphological changes in HepG2 cells” value is “no morphological changes”. In data set [1], the “effect on lactic acid production” value was “no effect” and the “effect on mitochondrial DNA synthesis” value is reported as “no effect”.
Take `Nc1ccn([C@@H]2C[C@@H](O)[C@H](CO)O2)c(=O)n1` [L-dCyd, 2′-deoxy-β-L-cytidine]: in the data set on HIV, the “activity against HIV” value was “not HIV”. Moreover, the “substrate activity for polymerase γ” value on polymerase γ is given as “little, if any”. Moreover, the IC50 in the data set on uninfected HepG2 cells is over 200 µM. In addition, in data set [1], the “effect on lactic acid production” value was “no effect” and the “effect on mitochondrial DNA synthesis” value is listed as “no effect”.
Regarding `Cc1cn([C@@H]2C[C@@H](O)[C@H](CO)O2)c(=O)[nH]c1=O` [L-dThd, 2′-Deoxy-β-L-thymidine], the “activity against HIV” value in the data set with HIV was “not HIV”. Further, on polymerase γ, the “substrate activity for polymerase γ” value is “little, if any”. Further, the IC50 with uninfected HepG2 cells was over 200 µM. In data set [1], the “effect on lactic acid production” value is on record as “no effect” and the “effect on mitochondrial DNA synthesis” value is on record as “no effect”.
